Measurements taken from PubChem BioAssay AID330 (DTP/NCI, 2004).
“And” between values parts separate entries of the source, which are not always exact repeats. Equal entries are not always repeated. Inconclusive results and toxic doses are left out. Rule for the calls: active = survival T/C of 150% or more; inactive = T/C below 125% in these data. Peptide text beside a SMILES is read from it. * marks the point of attachment. Cbz = O=C(OCc1ccccc1)*; OtBu = CC(C)(C)O*

System: P388 leukemia ip, CD2F1 mice, survival T/C
Experiment: NCI In Vivo Anticancer Drug Screen. Data for tumor model P388 Leukemia (intraperitoneal) in CD2F1 (CDF1) mice
Conditions: endpoint: median survival time, higher = longer survival
In short: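 Mice carrying the transplanted tumor received test compound or vehicle. Survival was recorded in each group, and the value is the treated-group measurement divided by that of the vehicle-treated control group.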

[1] = dose: 50.0 mg/kg/injection, schedule: Q01DX005 (ip), vehicle: Klucel (hydroxypropylcellulose) (HPC)
[2] = dose: 100.0 mg/kg/injection, schedule: Q01DX005 (ip), vehicle: Klucel (hydroxypropylcellulose) (HPC)
[3] = dose: 25.0 mg/kg/injection, schedule: Q01DX009 (ip), vehicle: Klucel (hydroxypropylcellulose) (HPC)
[4] = dose: 50.0 mg/kg/injection, schedule: Q01DX009 (ip), vehicle: saline with Tween-80
[5] = dose: 100.0 mg/kg/injection, schedule: Q01DX009 (ip), vehicle: saline with Tween-80
[6] = dose: 200.0 mg/kg/injection, schedule: Q01DX009 (ip), vehicle: saline with Tween-80
[7] = dose: 50.0 mg/kg/injection, schedule: Q01DX005 (ip), vehicle: saline with Tween-80
[8] = dose: 100.0 mg/kg/injection, schedule: Q01DX005 (ip), vehicle: saline with Tween-80
[9] = dose: 200.0 mg/kg/injection, schedule: Q01DX005 (ip), vehicle: saline with Tween-80
[10] = dose: 12.5 mg/kg/injection, schedule: Q01DX005 (ip), vehicle: saline with Tween-80
[11] = dose: 3.12 mg/kg/injection, schedule: Q01DX005 (ip), vehicle: saline with Tween-80
[12] = dose: 6.25 mg/kg/injection, schedule: Q01DX005 (ip), vehicle: saline with Tween-80

Measured: T/C

COCc1nnc2c(N)nccn12
inactive: dose: 100.0 mg/kg/injection, schedule: Q01DX001 (ip), vehicle: Klucel (hydroxypropylcellulose) (HPC) 99 % of control | dose: 200.0 mg/kg/injection, schedule: Q01DX001 (ip), vehicle: Klucel (hydroxypropylcellulose) (HPC) 93 % of control

OCC1OC(n2cnc3c(=S)nc[nH]c32)CC1O (stereo not drawn)
inactive: dose: 167.0 mg/kg/injection, schedule: Q01DX009 (ip), vehicle: saline with Tween-80 100 % of control | dose: 267.0 mg/kg/injection, schedule: Q01DX009 (ip), vehicle: saline with Tween-80 113 % of control

CC(C)C1CC(O)C(C)C(CN2CCCCC2)C1 (stereo not drawn)
inactive: [1] 105 % of control | [2] 104 % of control

C=CCCCCCCCCCSC(=N)N
inactive: dose: 6.25 mg/kg/injection, schedule: Q01DX009 (ip), vehicle: Klucel (hydroxypropylcellulose) (HPC) 98 % of control | dose: 12.5 mg/kg/injection, schedule: Q01DX009 (ip), vehicle: Klucel (hydroxypropylcellulose) (HPC) 93 % of control | [3] 99 % of control

CCOC(=O)Nc1nc2ccccc2n1CN1CCN(Cn2c(NC(=O)OCC)nc3ccccc32)CC1
inactive: dose: 25.0 mg/kg/injection, schedule: Q01DX005 (ip), vehicle: saline 108 % of control | dose: 50.0 mg/kg/injection, schedule: Q01DX005 (ip), vehicle: saline 111 % of control | dose: 100.0 mg/kg/injection, schedule: Q01DX005 (ip), vehicle: saline 121 % of control | dose: 200.0 mg/kg/injection, schedule: Q01DX005 (ip), vehicle: saline 122 % of control

CCCCN(CCCC)C(=S)S
inactive: dose: 15.0 mg/kg/injection, schedule: Q01DX005 (ip), vehicle: Klucel (hydroxypropylcellulose) (HPC) 105 % of control | dose: 30.0 mg/kg/injection, schedule: Q01DX005 (ip), vehicle: Klucel (hydroxypropylcellulose) (HPC) 98 % of control | dose: 60.0 mg/kg/injection, schedule: Q01DX005 (ip), vehicle: Klucel (hydroxypropylcellulose) (HPC) 88 % of control

CSc1cc(C)[o+]c(C)c1
inactive: [3] 101 % of control | dose: 50.0 mg/kg/injection, schedule: Q01DX009 (ip), vehicle: Klucel (hydroxypropylcellulose) (HPC) 113 % of control and 92 % of control | dose: 100.0 mg/kg/injection, schedule: Q01DX009 (ip), vehicle: Klucel (hydroxypropylcellulose) (HPC) 106 % of control and 107 % of control | dose: 200.0 mg/kg/injection, schedule: Q01DX009 (ip), vehicle: Klucel (hydroxypropylcellulose) (HPC) 122 % of control

COC(=O)[C@@]12OC[C@]34[C@H]([C@@H](O)[C@@H]1O)[C@@]1(C)CC(=O)C(O)=C(C)[C@@H]1C[C@H]3OC(=O)[C@H](OC(=O)CC(C)C)[C@@H]24
inactive: dose: 0.12 mg/kg/injection, schedule: Q01DX009 (ip), vehicle: saline + alcohol 110 % of control | dose: 0.25 mg/kg/injection, schedule: Q01DX009 (ip), vehicle: saline + alcohol 118 % of control

COc1ccc(C=NCCN=Cc2ccc(OC)cc2)cc1
inactive: dose: 25.0 mg/kg/injection, schedule: Q04DX003 (ip), vehicle: saline with Tween-80 100 % of control | dose: 50.0 mg/kg/injection, schedule: Q04DX003 (ip), vehicle: saline with Tween-80 109 % of control | dose: 100.0 mg/kg/injection, schedule: Q04DX003 (ip), vehicle: saline with Tween-80 108 % of control | dose: 200.0 mg/kg/injection, schedule: Q04DX003 (ip), vehicle: saline with Tween-80 110 % of control

CCOC(=O)C(Cc1ccc(O)cc1)Nc1nc2ccccc2o1 (stereo not drawn)
inactive: [4] 95 % of control | [5] 105 % of control | [6] 103 % of control | dose: 400.0 mg/kg/injection, schedule: Q01DX009 (ip), vehicle: saline with Tween-80 96 % of control

CC(C)(C)OC(=O)CCC(NC(=O)C(CCC(=O)OC(C)(C)C)NC(=O)C(CCC(=O)OC(C)(C)C)NC(=O)OCc1ccccc1)C(=O)O (stereo not drawn) (Cbz-Glu(OtBu)-Glu(OtBu)-Glu(OtBu)-OH; configuration not given here)
inactive: [7] 104 % of control | [8] 100 % of control | [9] 96 % of control

CCCCCCCNc1ncnc2[nH]ncc12
inactive: [7] 112 % of control | [8] 107 % of control | [9] 107 % of control

CCOC(=O)N(NC(=O)Nc1ccccc1)C(c1ccccc1)c1ccccc1
inactive: dose: 75.0 mg/kg/injection, schedule: Q01DX009 (ip), vehicle: saline with Tween-80 94 % of control | dose: 150.0 mg/kg/injection, schedule: Q01DX009 (ip), vehicle: saline with Tween-80 94 % of control | dose: 300.0 mg/kg/injection, schedule: Q01DX009 (ip), vehicle: saline with Tween-80 98 % of control

CCS(=O)(=O)[O][Sn]([CH2]C)([CH2]C)[O]S(=O)(=O)CC
inactive: dose: 1.56 mg/kg/injection, schedule: Q04DX003 (ip), vehicle: saline 107 % of control | dose: 3.12 mg/kg/injection, schedule: Q04DX003 (ip), vehicle: saline 110 % of control | dose: 6.25 mg/kg/injection, schedule: Q04DX003 (ip), vehicle: saline 116 % of control and 121 % of control

COc1cc(C)c(C(CC(=O)O)CC(=O)N(CCCl)CCCl)cc1C(C)C (stereo not drawn)
inactive: dose: 100.0 mg/kg/injection, schedule: Q01DX003 (ip), vehicle: saline 102 % of control | dose: 200.0 mg/kg/injection, schedule: Q01DX003 (ip), vehicle: saline 100 % of control | dose: 400.0 mg/kg/injection, schedule: Q01DX003 (ip), vehicle: saline 100 % of control

COc1ccc(Cc2cc(N=NC(N)=O)c(OC)cc2O)cc1
inactive: [10] 93 % of control | dose: 25.0 mg/kg/injection, schedule: Q01DX005 (ip), vehicle: saline with Tween-80 87 % of control | [7] 88 % of control

Nc1c(C(=O)NCc2ccccc2)c2nc3c(C(=O)NCc4ccccc4)cccc3oc-2cc1=O
inactive: dose: 1.56 mg/kg/injection, schedule: Q01DX005 (ip), vehicle: saline with Tween-80 99 % of control | [11] 89 % of control | [12] 89 % of control | [8] 86 % of control | [9] 100 % of control

CC(C)NCC(N)C(=O)O (stereo not drawn)
inactive: dose: 55.0 mg/kg/injection, schedule: Q01DX001 (ip), vehicle: saline 102 % of control | dose: 110.0 mg/kg/injection, schedule: Q01DX001 (ip), vehicle: saline 102 % of control | dose: 220.0 mg/kg/injection, schedule: Q01DX001 (ip), vehicle: saline 99 % of control

CN1C(=O)N(C)C2(C(=O)N(C)C(=S)N2C)N(C)C1=O
inactive: dose: 60.0 mg/kg/injection, schedule: Q01DX005 (ip), vehicle: saline with Tween-80 95 % of control | dose: 120.0 mg/kg/injection, schedule: Q01DX005 (ip), vehicle: saline with Tween-80 103 % of control | dose: 240.0 mg/kg/injection, schedule: Q01DX005 (ip), vehicle: saline with Tween-80 102 % of control

CCOC(=O)c1cc2c(nc1C)-c1ccccc1OC2Nc1ccccc1 (stereo not drawn)
inactive: [11] 98 % of control | [12] 96 % of control | [10] 96 % of control | [7] 88 % of control | dose: 100.0 mg/kg/injection, schedule: Q01DX001 (ip), vehicle: saline with Tween-80 89 % of control

COC(=O)c1c(C(N)=O)c(C)n(NC(=O)Nc2ccccc2)c1C
inactive: [7] 96 % of control | [8] 89 % of control | [9] 94 % of control

O=C(NCCN1CCN2Cc3[nH]c4ccccc4c3CC2C1)c1ccc(Cl)cc1 (stereo not drawn)
inactive: dose: 60.0 mg/kg/injection, schedule: Q01DX005 (ip), vehicle: saline 102 % of control | dose: 120.0 mg/kg/injection, schedule: Q01DX005 (ip), vehicle: saline 97 % of control | dose: 240.0 mg/kg/injection, schedule: Q01DX005 (ip), vehicle: saline 90 % of control

CCOC(=O)c1ccc(NC(Cc2ccccc2)=NC(C)(C)C)cc1
inactive: [4] 98 % of control | [5] 94 % of control | [6] 88 % of control

CC1CN2CC(C)O[Si](CC[Si](C)(C)C)(O1)OC(C)C2 (stereo not drawn)
inactive: [1] 104 % of control | [2] 90 % of control

CCC(=O)c1nc(N)[nH]c1CC
inactive: dose: 2.5 mg/kg/injection, schedule: Q01DX005 (ip), vehicle: Klucel (hydroxypropylcellulose) (HPC) 101 % of control | dose: 5.0 mg/kg/injection, schedule: Q01DX005 (ip), vehicle: Klucel (hydroxypropylcellulose) (HPC) 93 % of control | dose: 10.0 mg/kg/injection, schedule: Q01DX005 (ip), vehicle: Klucel (hydroxypropylcellulose) (HPC) 102 % of control

Cc1cc(Cl)ccc1-n1nc(C)c2c(N)nc(N)nc21
inactive: dose: 100.0 mg/kg/injection, schedule: Q04DX003 (ip), vehicle: Klucel (hydroxypropylcellulose) (HPC) 109 % of control | dose: 200.0 mg/kg/injection, schedule: Q04DX003 (ip), vehicle: Klucel (hydroxypropylcellulose) (HPC) 102 % of control

N#CSCc1ccc(Cl)cc1Cl
inactive: [4] 109 % of control | [5] 113 % of control | [6] 113 % of control
